From patent US20150018384A1, “TREATMENT FOR HIGH CHOLESTEROL” (FibroGen, Inc., priority 2012, published 2015)

Columns and labels:
[1] = system: Cholesterol Biosynthesis Genes in the Mouse Liver; assay: Microarray expression of cholesterol biosynthesis genes in mouse liver; assay type: in vivo; details: 10 mg/kg oral
Experimental: A number of PHI compounds were evaluated for their effect on the expression of cholesterol biosynthesis genes in mouse liver. […] Liver tissue was harvested and stored in RNALater (Life Technologies). Total RNA was isolated with Trizol (Life Technologies) and purified with RNEasy96 (Qiagen) according to the manufacturers' protocols. RNA concentration was measured by NanoDrop (Thermo), and quality was assessed by Bioanalyzer (Agilent).
Biotinylated microarray probe was prepared using the 3′IVT Express kit (Affymetrix) and hybridized to mouse 430A 2.0 arrays as recommended in the manufacturer's protocol. Arrays were stained, washed, and scanned using Affymetrix equipment and software. Three arrays were run for each treatment and time point, each representing the liver sample from one individual animal.
Animals were sacrificed 4 h or 8 h later. Each compound was tested in a separate animal study with separate controls. Liver tissue was harvested and stored in RNALater (Life Technologies). Total RNA was isolated with Trizol (Life Technologies) and purified with RNEasy96 (Qiagen) according to the manufacturers' protocols. RNA concentration was measured by NanoDrop (Thermo), and quality was assessed by Bioanalyzer (Agilent).
For microarray analysis, RNA from animals in each treatment group was pooled in pairs (n=3 pairs for 4 h vehicle, n=2 pairs for all other treatment groups, for a total of 13 arrays per compound study). This approach was used to improve the signal-to-noise ratio on microarrays. Biotinylated probe was prepared using the One-Cycle cDNA synthesis kit (Affymetrix) and hybridized to mouse 430A 2.0 arrays as recommended in the manufacturer's protocol. Arrays were stained, washed, and scanned using Affymetrix equipment and software.
Array quality was assessed with GeneChip Operating System and/or Command Console software (Affymetrix). CEL files were uploaded to GeneSpring 7.3.1 (Agilent) using GC-RMA baseline correction. Principal Components Analysis was used to identify and reject outlier arrays. Data are reported as fold-change compared to timepoint-matched vehicle controls from the same study. Values less than 1.0 indicate a reduction of RNA in the treated animal liver tissue.

[2] = system: subjects with end-stage renal disease (ESRD) receiving maintenance hemodialysis; assay: Study 2: phase 2 study of compound A vs EPO in ESRD subjects on maintenance hemodialysis; assay type: in vivo, human; details: treated for 19 weeks, FIG. 2
Experimental: Total cholesterol and lipid panels were measured by standard procedures.
Total cholesterol was measured from all subjects in Study 1 or Study 2 as part of the chemistry panel at prespecified time points.
Frozen serum samples, collected from subjects in Study 1 or Study 2, were selected for the lipid panel analysis based on the following criteria: 1) with matched baseline (D1W1) and; 2) at least one other time point. The complete lipid panel includes: total cholesterol (TC), HDL, LDL-measured, Triglycerides and VLDL (Calculated). Ratio of HDL/LDL or LDL/HDL were analyzed.
A total of n=20 subjects were selected and assayed for the complete lipid panel as described above. Subjects on this study protocol were not required to fast nor have any diet restrictions.

[3] = system: subjects with end stage renal disease (ESRD); assay: ESRD subjects switched from epoetin alfa to Compound A or continued on epoetin alfa; assay type: in vivo, human
[4] = system: subjects with end stage renal disease (ESRD); assay: as above; assay type: in vivo, human; details: six weeks
Experimental: Mean total cholesterol change for the Compound A-treated subjects (all cohorts) was a decrease of 15 mg/dL compared to an increase of 18 mg/dL for the epoetin alfa treated subjects.

[5] = baseline, Compound A 3 cohorts n=74, Epoetin alfa n=22

Cc1cccc(C)c1Oc1ccc2c(O)c(C(=O)NCC(=O)O)nc(C#N)c2c1 [Compound I, {[1-Cyano-7-(2,6-dimethyl-phenoxy)-4-hydroxy-isoquinoline-3-carbonyl]-amino}-acetic acid]
3-hydroxy-3-methylglutaryl-Coenzyme A reductase (Hmgcr) RNA expression ([1]; 4 h): 0.41 fold-change | 3-hydroxy-3-methylglutaryl-Coenzyme A synthase 1 (Hmgcs1) RNA expression ([1]; 4 h): 1.43 fold-change | 7-dehydrocholesterol reductase (Dhcr7) RNA expression ([1]; 4 h): 1.41 fold-change | NAD(P) dependent steroid dehydrogenase-like (Nsdhl) RNA expression ([1]; 4 h): 1.66 fold-change | acetyl-Coenzyme A acetyltransferase 2 (Acat2) RNA expression ([1]; 4 h): 1.21 fold-change | cytochrome P450, family 51 (Cyp51) RNA expression ([1]; 4 h): 0.81 fold-change | farnesyl diphosphate farnesyl transferase 1 (Fdft1) RNA expression ([1]; 4 h): 0.85 fold-change | farnesyl diphosphate synthetase (Fdps) RNA expression ([1]; 4 h): 1.45 fold-change | isopentenyl-diphosphate delta isomerase (Idi1) RNA expression ([1]; 4 h): 1.40 fold-change | lanosterol synthase (Lss) RNA expression ([1]; 4 h): 0.74 fold-change | mevalonate (diphospho) decarboxylase (Mvd) RNA expression ([1]; 4 h): 0.45 fold-change | mevalonate kinase (Mvk) RNA expression ([1]; 4 h): 1.02 fold-change | phosphomevalonate kinase (Pmvk) RNA expression ([1]; 4 h): 1.25 fold-change | squalene epoxidase (Sqle) RNA expression ([1]; 4 h): 1.36 fold-change | sterol-C4-methyl oxidase-like (Sc4mol) RNA expression ([1]; 4 h): 0.88 fold-change | sterol-C5-desaturase (fungal ERG3, delta-5-desaturase) homolog (S. cerevisae) (Sc5d) RNA expression ([1]; 4 h): 0.87 fold-change | 3-hydroxy-3-methylglutaryl-Coenzyme A reductase (Hmgcr) RNA expression ([1]; 8 h): 0.17 fold-change | 3-hydroxy-3-methylglutaryl-Coenzyme A synthase 1 (Hmgcs1) RNA expression ([1]; 8 h): 0.19 fold-change | 7-dehydrocholesterol reductase (Dhcr7) RNA expression ([1]; 8 h): 0.30 fold-change | NAD(P) dependent steroid dehydrogenase-like (Nsdhl) RNA expression ([1]; 8 h): 0.21 fold-change | acetyl-Coenzyme A acetyltransferase 2 (Acat2) RNA expression ([1]; 8 h): 0.43 fold-change | cytochrome P450, family 51 (Cyp51) RNA expression ([1]; 8 h): 0.12 fold-change | farnesyl diphosphate farnesyl transferase 1 (Fdft1) RNA expression ([1]; 8 h): 0.32 fold-change | farnesyl diphosphate synthetase (Fdps) RNA expression ([1]; 8 h): 0.16 fold-change | isopentenyl-diphosphate delta isomerase (Idi1) RNA expression ([1]; 8 h): 0.12 fold-change | lanosterol synthase (Lss) RNA expression ([1]; 8 h): 0.28 fold-change | mevalonate (diphospho) decarboxylase (Mvd) RNA expression ([1]; 8 h): 0.19 fold-change | mevalonate kinase (Mvk) RNA expression ([1]; 8 h): 0.37 fold-change | phosphomevalonate kinase (Pmvk) RNA expression ([1]; 8 h): 0.41 fold-change | squalene epoxidase (Sqle) RNA expression ([1]; 8 h): 0.16 fold-change | sterol-C4-methyl oxidase-like (Sc4mol) RNA expression ([1]; 8 h): 0.11 fold-change | sterol-C5-desaturase (fungal ERG3, delta-5-desaturase) homolog (S. cerevisae) (Sc5d) RNA expression ([1]; 8 h): 0.54 fold-change

Epoetin alfa [reference compound]
change in total cholesterol from baseline over time [2]: No reduction of total cholesterol | LDL cholesterol change ([3]; Mean (±SD), six weeks, Compound A orally three times a week (n=74) or continued epoetin alfa (n=22)): +5 (14) mg/dL | Mean BL LDL Cholesterol [3, 5]: 90.75 mg/dL | Mean BL Total Cholesterol [3, 5]: 158.41 mg/dL | mean total cholesterol over the course of treatment ([3]; both groups stratified by BL total cholesterol ≦200 or >200 mg/dL, FIG. 16): increase | HDL-C ([3]; six weeks): did not change significantly | Mean change in LDL-C, increase ([3]; six weeks): 5 mg/dL | mean LDL-C over the course of treatment ([3]; subjects with the higher BL total cholesterol (n=2), FIG. 17): slight decrease | mean LDL-C over the course of treatment ([3]; subjects with the lower BL total cholesterol (n=20)): increase | Total Cholesterol change ([4]; Mean (±SD), Compound A orally three times a week (n=74) or continued epoetin alfa (n=22)): +18 (22) mg/dL | Mean total cholesterol change, increase [4]: 18 mg/dL
